Assay results taken from PubChem BioAssay (NCI).
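How tested: cells in 96-well plates exposed to compound for 48 hours at five concentrations. The concentration for 50% growth inhibition is given as GI50. TGI: total growth inhibition.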 Residues, ends and D or L forms follow the SMILES beside them. *: point of attachment. Boc = CC(C)(C)OC(=O)*; OBn = c1ccc(CO*)cc1

How the values were obtained:
Assay in all cases: growth of human tumour cells (NCI), 48 h
786-0 renal = test system: 786-0 renal
A498 renal = test system: A498 renal
A549 NSCLC = test system: A549 NSCLC
ACHN renal = test system: ACHN renal
BT-549 breast = test system: BT-549 breast
COLO 205 colon = test system: COLO 205 colon
DU-145 prostate = test system: DU-145 prostate
EKVX NSCLC = test system: EKVX NSCLC
HCT-116 colon = test system: HCT-116 colon
HCT-15 colon = test system: HCT-15 colon
HOP-62 NSCLC = test system: HOP-62 NSCLC
LOX IMVI melanoma = test system: LOX IMVI melanoma
M14 melanoma = test system: M14 melanoma
MCF7 breast = test system: MCF7 breast
NCI-H226 lung = test system: NCI-H226 lung
NCI-H23 lung = test system: NCI-H23 lung
NCI-H460 lung = test system: NCI-H460 lung
NCI-H522 lung = test system: NCI-H522 lung
NCI/ADR-RES ovarian = test system: NCI/ADR-RES ovarian
OVCAR-5 ovarian = test system: OVCAR-5 ovarian
OVCAR-8 ovarian = test system: OVCAR-8 ovarian
PC-3 prostate = test system: PC-3 prostate
RXF 393 renal = test system: RXF 393 renal
SF-295 CNS = test system: SF-295 CNS
SK-MEL-5 melanoma = test system: SK-MEL-5 melanoma
SK-OV-3 ovarian = test system: SK-OV-3 ovarian
SNB-19 CNS = test system: SNB-19 CNS
SNB-75 CNS = test system: SNB-75 CNS
TK-10 renal = test system: TK-10 renal
UACC-257 melanoma = test system: UACC-257 melanoma
UACC-62 melanoma = test system: UACC-62 melanoma
UO-31 renal = test system: UO-31 renal
CAKI-1 renal = test system: CAKI-1 renal
HL-60(TB) leukemia = test system: HL-60(TB) leukemia
HOP-92 NSCLC = test system: HOP-92 NSCLC
HS 578T breast = test system: HS 578T breast
IGROV1 ovarian = test system: IGROV1 ovarian
K-562 leukemia = test system: K-562 leukemia
KM12 colon = test system: KM12 colon
MDA-MB-231 breast = test system: MDA-MB-231 breast
MDA-MB-435 = test system: MDA-MB-435
MOLT-4 leukemia = test system: MOLT-4 leukemia
OVCAR-3 ovarian = test system: OVCAR-3 ovarian
OVCAR-4 ovarian = test system: OVCAR-4 ovarian
RPMI-8226 leukemia = test system: RPMI-8226 leukemia
SF-268 CNS = test system: SF-268 CNS
SK-MEL-2 melanoma = test system: SK-MEL-2 melanoma
SK-MEL-28 melanoma = test system: SK-MEL-28 melanoma
SN12C renal = test system: SN12C renal
SR leukemia = test system: SR leukemia
SW-620 colon = test system: SW-620 colon
T-47D breast = test system: T-47D breast
U251 CNS = test system: U251 CNS
CCRF-CEM leukemia = test system: CCRF-CEM leukemia
HCC-2998 colon = test system: HCC-2998 colon
HT29 colon = test system: HT29 colon
MALME-3M melanoma = test system: MALME-3M melanoma
SF-539 CNS = test system: SF-539 CNS

SMILES: CCN1C/C(=C\c2ccc(Cl)cc2)C2=NN(c3ccccc3)C(c3ccc(Cl)cc3)C2C1 (stereo not drawn)
- TGI (786-0 renal): > 100 µM
- TGI (A498 renal): > 100 µM
- TGI (A549 NSCLC): > 100 µM
- TGI (ACHN renal): > 100 µM
- TGI (BT-549 breast): > 100 µM
- TGI (COLO 205 colon): > 100 µM
- TGI (DU-145 prostate): > 100 µM
- TGI (EKVX NSCLC): > 100 µM
- TGI (HCT-116 colon): > 100 µM
- TGI (HCT-15 colon): > 100 µM
- TGI (HOP-62 NSCLC): > 100 µM
- TGI (LOX IMVI melanoma): > 100 µM
- TGI (M14 melanoma): > 100 µM
- TGI (MCF7 breast): > 100 µM
- TGI (NCI-H226 lung): > 100 µM
- TGI (NCI-H23 lung): > 100 µM
- TGI (NCI-H460 lung): > 100 µM
- TGI (NCI-H522 lung): > 100 µM
- TGI (NCI/ADR-RES ovarian): > 100 µM
- TGI (OVCAR-5 ovarian): > 100 µM
- TGI (OVCAR-8 ovarian): > 100 µM
- TGI (PC-3 prostate): > 100 µM
- TGI (RXF 393 renal): > 100 µM
- TGI (SF-295 CNS): > 100 µM
- TGI (SK-MEL-5 melanoma): > 100 µM
- TGI (SK-OV-3 ovarian): > 100 µM
- TGI (SNB-19 CNS): > 100 µM
- TGI (SNB-75 CNS): > 100 µM
- TGI (TK-10 renal): > 100 µM
- TGI (UACC-257 melanoma): > 100 µM
- TGI (UACC-62 melanoma): > 100 µM
- TGI (UO-31 renal): > 100 µM

SMILES: N#CC1C(N)=NNC1c1ccc(-c2ccc(-c3nc4ccccc4o3)cc2)o1 (stereo not drawn)
- GI50 (786-0 renal): > 100 µM
- TGI (786-0 renal): > 100 µM
- GI50 (A549 NSCLC): 32.3 µM
- TGI (A549 NSCLC): > 100 µM
- GI50 (ACHN renal): 14.6 µM
- TGI (ACHN renal): 51.7 µM
- GI50 (BT-549 breast): 24 µM
- TGI (BT-549 breast): 75.7 µM
- GI50 (CAKI-1 renal): 14.8 µM
- TGI (CAKI-1 renal): 44.2 µM
- GI50 (COLO 205 colon): 30.9 µM
- TGI (COLO 205 colon): > 100 µM
- GI50 (DU-145 prostate): 15.3 µM
- TGI (DU-145 prostate): 41.1 µM
- GI50 (EKVX NSCLC): 14.6 µM
- TGI (EKVX NSCLC): 81.2 µM
- GI50 (HCT-116 colon): 5.91 µM
- TGI (HCT-116 colon): > 100 µM
- GI50 (HCT-15 colon): 32.3 µM
- TGI (HCT-15 colon): > 100 µM
- GI50 (HL-60(TB) leukemia): 57.7 µM
- TGI (HL-60(TB) leukemia): > 100 µM
- GI50 (HOP-62 NSCLC): > 100 µM
- TGI (HOP-62 NSCLC): > 100 µM
- GI50 (HOP-92 NSCLC): 18.2 µM
- TGI (HOP-92 NSCLC): > 100 µM
- GI50 (HS 578T breast): 29.6 µM
- TGI (HS 578T breast): > 100 µM
- GI50 (IGROV1 ovarian): 69.4 µM
- TGI (IGROV1 ovarian): > 100 µM
- GI50 (K-562 leukemia): 64.6 µM
- TGI (K-562 leukemia): > 100 µM
- GI50 (KM12 colon): 24 µM
- TGI (KM12 colon): 93.8 µM
- GI50 (LOX IMVI melanoma): 23.3 µM
- TGI (LOX IMVI melanoma): 64.7 µM
- GI50 (M14 melanoma): 63.7 µM
- TGI (M14 melanoma): > 100 µM
- GI50 (MDA-MB-231 breast): 15.3 µM
- TGI (MDA-MB-231 breast): 65.8 µM
- GI50 (MDA-MB-435): 36.4 µM
- TGI (MDA-MB-435): > 100 µM
- GI50 (MOLT-4 leukemia): > 100 µM
- TGI (MOLT-4 leukemia): > 100 µM
- GI50 (NCI-H226 lung): 15.1 µM
- TGI (NCI-H226 lung): 74.5 µM
- GI50 (NCI-H460 lung): 23.8 µM
- TGI (NCI-H460 lung): > 100 µM
- GI50 (NCI-H522 lung): 53.4 µM
- TGI (NCI-H522 lung): > 100 µM
- GI50 (NCI/ADR-RES ovarian): 36 µM
- TGI (NCI/ADR-RES ovarian): 75.6 µM
- GI50 (OVCAR-3 ovarian): 2.12 µM
- TGI (OVCAR-3 ovarian): 13.2 µM
- GI50 (OVCAR-4 ovarian): 90.8 µM
- TGI (OVCAR-4 ovarian): > 100 µM
- GI50 (OVCAR-5 ovarian): 38.1 µM
- TGI (OVCAR-5 ovarian): > 100 µM
- GI50 (OVCAR-8 ovarian): 15.3 µM
- TGI (OVCAR-8 ovarian): 88 µM
- GI50 (PC-3 prostate): 40.3 µM
- TGI (PC-3 prostate): > 100 µM
- GI50 (RPMI-8226 leukemia): 28.6 µM
- TGI (RPMI-8226 leukemia): > 100 µM
- GI50 (SF-268 CNS): 20 µM
- TGI (SF-268 CNS): 51.7 µM
- GI50 (SF-295 CNS): 66.4 µM
- TGI (SF-295 CNS): > 100 µM
- GI50 (SK-MEL-2 melanoma): 37.5 µM
- TGI (SK-MEL-2 melanoma): > 100 µM
- GI50 (SK-MEL-28 melanoma): 26 µM
- TGI (SK-MEL-28 melanoma): > 100 µM
- GI50 (SK-MEL-5 melanoma): 21.4 µM
- TGI (SK-MEL-5 melanoma): 60.5 µM
- GI50 (SK-OV-3 ovarian): 37.4 µM
- TGI (SK-OV-3 ovarian): > 100 µM
- GI50 (SN12C renal): 45 µM
- TGI (SN12C renal): > 100 µM
- GI50 (SNB-19 CNS): > 100 µM
- TGI (SNB-19 CNS): > 100 µM
- GI50 (SNB-75 CNS): > 100 µM
- TGI (SNB-75 CNS): > 100 µM
- GI50 (SR leukemia): > 100 µM
- TGI (SR leukemia): > 100 µM
- GI50 (SW-620 colon): 74.9 µM
- TGI (SW-620 colon): > 100 µM
- GI50 (T-47D breast): 68.5 µM
- TGI (T-47D breast): > 100 µM
- GI50 (TK-10 renal): 25.5 µM
- TGI (TK-10 renal): 74.7 µM
- GI50 (U251 CNS): 28.4 µM
- TGI (U251 CNS): > 100 µM
- GI50 (UACC-257 melanoma): 23.1 µM
- TGI (UACC-257 melanoma): > 100 µM
- GI50 (UACC-62 melanoma): 23.9 µM
- TGI (UACC-62 melanoma): 91.1 µM
- GI50 (UO-31 renal): 30.1 µM
- TGI (UO-31 renal): > 100 µM

SMILES: CCN(CC)CCNc1ccc(N=Nc2ccc(S(N)(=O)=O)cc2)c2ccccc12
- TGI (786-0 renal): > 100 µM
- TGI (A498 renal): 29.7 µM
- TGI (A549 NSCLC): 40.5 µM
- TGI (ACHN renal): 38.8 µM
- TGI (BT-549 breast): 34 µM
- TGI (CAKI-1 renal): 31.2 µM
- TGI (CCRF-CEM leukemia): 38.3 µM
- TGI (COLO 205 colon): > 100 µM
- TGI (DU-145 prostate): 28.2 µM
- TGI (EKVX NSCLC): 41.2 µM
- TGI (HCC-2998 colon): 29.1 µM
- TGI (HCT-116 colon): > 100 µM
- TGI (HCT-15 colon): > 100 µM
- TGI (HL-60(TB) leukemia): 36.9 µM
- TGI (HOP-62 NSCLC): > 100 µM
- TGI (HOP-92 NSCLC): 35.9 µM
- TGI (HS 578T breast): 55.9 µM
- TGI (HT29 colon): 34.9 µM
- TGI (IGROV1 ovarian): 28.8 µM
- TGI (K-562 leukemia): > 100 µM
- TGI (KM12 colon): 39 µM
- TGI (M14 melanoma): 23.3 µM
- TGI (MALME-3M melanoma): 36 µM
- TGI (MCF7 breast): 47 µM
- TGI (MDA-MB-231 breast): 27.8 µM
- TGI (MDA-MB-435): 23.6 µM
- TGI (MOLT-4 leukemia): 25.6 µM
- TGI (NCI-H226 lung): 72.7 µM
- TGI (NCI-H23 lung): 50.7 µM
- TGI (NCI-H460 lung): > 100 µM
- TGI (NCI-H522 lung): 32 µM
- TGI (NCI/ADR-RES ovarian): > 100 µM
- TGI (OVCAR-3 ovarian): 5.55 µM
- TGI (OVCAR-4 ovarian): 30.9 µM
- TGI (OVCAR-5 ovarian): 88.1 µM
- TGI (OVCAR-8 ovarian): 21.3 µM
- TGI (PC-3 prostate): 29.7 µM
- TGI (RPMI-8226 leukemia): 18.7 µM
- TGI (RXF 393 renal): 12.7 µM
- TGI (SF-268 CNS): 37.8 µM
- TGI (SF-295 CNS): 15.1 µM
- TGI (SF-539 CNS): 12.8 µM
- TGI (SK-MEL-2 melanoma): 28.2 µM
- TGI (SK-MEL-28 melanoma): 28.1 µM
- TGI (SK-MEL-5 melanoma): 20.3 µM
- TGI (SN12C renal): 81 µM
- TGI (SNB-19 CNS): 27.7 µM
- TGI (SNB-75 CNS): 27 µM
- TGI (SR leukemia): 4.94 µM
- TGI (SW-620 colon): 14.6 µM
- TGI (T-47D breast): 8.27 µM
- TGI (TK-10 renal): 40.3 µM
- TGI (U251 CNS): > 100 µM
- TGI (UACC-257 melanoma): 31.4 µM
- TGI (UACC-62 melanoma): 25.7 µM
- TGI (UO-31 renal): 20.8 µM

SMILES: CC(C)C(NC(=O)OC(C)(C)C)C(=O)N1CCCC1C(=O)OCc1ccccc1 (stereo not drawn) (Boc-Val-Pro-OBn; configuration not given here)
- GI50 (SK-MEL-2 melanoma): 46.3 µg/mL
- GI50 (SR leukemia): 90.6 µg/mL
